Measured values taken from patent US6737383B1, “Herbicidal oxadiazolidines” (priority 1999, dated 2004).

How the values were obtained:
blackgrass = assay: Test B pre/postemergence blackgrass; format: in vivo, Alopecurus myosuroides
Outline: (§1)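 Test chemicals in a non-phytotoxic solvent mixture with surfactant were sprayed preemergence onto planted seeds and postemergence onto plants 2 to 18 cm tall (1- to 4-leaf stage). After twelve to sixteen days in a greenhouse, injury was visually rated against untreated controls from 0 (no effect) to 10 (complete control).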

surinam grass = assay: Test B pre/postemergence surinam grass; format: in vivo, Brachiaria decumbens
Outline: as §1

cocklebur = assay: Test B pre/postemergence cocklebur; format: in vivo, Xanthium strumarium
Outline: as §1

corn = assay: Test B pre/postemergence corn; format: in vivo, Zea mays
Outline: as §1

crabgrass = assay: Test B pre/postemergence crabgrass; format: in vivo, Digitaria sanguinalis
Outline: as §1

giant foxtail = assay: Test B pre/postemergence giant foxtail; format: in vivo, Setaria faberii
Outline: as §1

morningglory = assay: Test B pre/postemergence morningglory; format: in vivo, Ipomoea hederacea
Outline: as §1

pigweed = assay: Test B pre/postemergence pigweed; format: in vivo, Amaranthus retroflexus
Outline: as §1

rape = assay: Test B pre/postemergence rape; format: in vivo, Brassica napus
Outline: as §1

sugar beet = assay: Test B pre/postemergence sugar beet; format: in vivo, Beta vulgaris
Outline: as §1

velvetleaf = assay: Test B pre/postemergence velvetleaf; format: in vivo, Abutilon theophrasti
Outline: as §1

wheat = assay: Test B pre/postemergence wheat; format: in vivo, Triticum aestivum
Outline: as §1

purple nutsedge = assay: Test B pre/postemergence purple nutsedge; format: in vivo, Cyperus rotundus
Outline: as §1

rice = assay: Test B flood test rice; format: in vivo, Oryza sativa
Outline: (§2)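 Plants were grown to the 2-leaf stage before treatment with test chemical, then held in a greenhouse for twelve to sixteen days. Injury was visually rated against untreated controls on a 0–10 scale, where 0 is no effect and 10 is complete control.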

smallflower flatsedge = assay: Test B flood test smallflower flatsedge; format: in vivo, Cyperus difformis
Outline: as §2

duck salad = assay: Test B flood test duck salad; format: in vivo, Heteranthera limosa
Outline: as §2

[1] = Preemergence, Rate 62 g/ha, scale of 0 to 10 where 0 is no effect and 10 is complete control
[2] = Preemergence, Rate 250 g/ha, scale of 0 to 10 where 0 is no effect and 10 is complete control
[3] = Preemergence, Rate 500 g/ha, scale of 0 to 10 where 0 is no effect and 10 is complete control
[4] = Rate 62 g/ha, Postemergence, scale of 0 to 10 where 0 is no effect and 10 is complete control
[5] = Rate 125 g/ha, Postemergence, scale 0 to 10
[6] = Rate 125 g/ha, Preemergence, scale of 0 to 10 where 0 is no effect and 10 is complete control
[7] = Rate 500 g/ha, Postemergence, scale 0 to 10, 0 no effect, 10 complete control
[8] = Rate 62 g/ha, headed Pre-emergence (flood test species), scale 0 to 10 (0 no effect, 10 complete control)
[9] = Rate 125 g/ha, Pre-emergence, flood test species, scale 0 to 10 where 0 is no effect and 10 is complete control
[10] = Rate 250 g/ha, Pre-emergence, flood-test species, scale 0 to 10, 0 is no effect, 10 is complete control
[11] = Rate 500 g/ha, Pre-emergence, flood test species, scale 0 to 10 (0 no effect, 10 complete control)

COc1cc(C)cc(C)c1-n1c(=O)on(C(=O)N(c2ccc(F)cc2)C(C)C)c1=O [Compound 222]
Blackgrass plant response rating (blackgrass; [1]): 0 | Blackgrass plant response rating (blackgrass; [2]): 0 | Plant response rating, Blackgrass (blackgrass; [3]): 0 | Blackgrass plant response rating (blackgrass; [4]): 0 | Blackgrass plant response rating (blackgrass; [5]): 0 | Blackgrass plant response rating (blackgrass; [6]): 0 | Plant response rating (0 to 10; 0 is no effect, 10 is complete control), Blackgrass (blackgrass; Rate 250 g/ha, Postemergence): 3 | Blackgrass plant response rating (blackgrass; [7]): 4 | B. signalgrass plant response rating (surinam grass; [1]): 0 | B. signalgrass plant response rating (surinam grass; Preemergence, Rate 250 g/ha, scale 0 to 10, 0 is no effect, 10 is complete control): 0 | Plant response rating, B. signalgrass (surinam grass; [3]): 0 | B. signalgrass plant response rating (surinam grass; [4]): 0 | B. signalgrass plant response rating (surinam grass; Rate 125 g/ha, Postemergence, scale 0 (no effect) to 10 (complete control)): 0 | B. signalgrass plant response rating (surinam grass; [6]): 0 | Plant response rating (0 to 10; 0 is no effect, 10 is complete control), B. signalgrass (surinam grass; Rate 250 g/ha, Postemergence): 0 | B. signalgrass plant response rating (surinam grass; [7]): 1 | Cocklebur plant response rating (cocklebur; [1]): 0 | Cocklebur plant response rating (cocklebur; [2]): 0 | Cocklebur plant response rating (cocklebur; [4]): 0 | Cocklebur plant response rating (cocklebur; [5]): 0 | Cocklebur plant response rating (cocklebur; [6]): 0 | Plant response rating (0 to 10; 0 is no effect, 10 is complete control), Cocklebur (cocklebur; Rate 250 g/ha, Postemergence): 0 | Cocklebur plant response rating (cocklebur; [7]): 0 | Corn plant response rating (corn; [1]): 0 | Corn plant response rating (corn; [2]): 0 | Plant response rating, Corn (corn; [3]): 0 | Corn plant response rating (corn; [4]): 0 | Corn plant response rating (corn; [5]): 0 | Corn plant response rating (corn; [6]): 0 | Plant response rating (0 to 10; 0 is no effect, 10 is complete control), Corn (corn; Rate 250 g/ha, Postemergence): 0 | Corn plant response rating (corn; [7]): 0 | Crabgrass plant response rating (crabgrass; [1]): 0 | Crabgrass plant response rating (crabgrass; [2]): 8 | Plant response rating, Crabgrass (crabgrass; [3]): 9 | Crabgrass plant response rating (crabgrass; [4]): 0 | Crabgrass plant response rating (crabgrass; [5]): 0 | Crabgrass plant response rating (crabgrass; [6]): 6 | Plant response rating (0 to 10; 0 is no effect, 10 is complete control), Crabgrass (crabgrass; Rate 250 g/ha, Postemergence): 0 | Crabgrass plant response rating (crabgrass; [7]): 2 | Giant foxtail plant response rating (giant foxtail; [1]): 0 | Giant foxtail plant response rating (giant foxtail; [2]): 7 | Plant response rating, Giant foxtail (giant foxtail; [3]): 9 | Giant foxtail plant response rating (giant foxtail; [4]): 0 | Giant foxtail plant response rating (giant foxtail; [5]): 0 | Giant foxtail plant response rating (giant foxtail; [6]): 5 | Plant response rating (0 to 10; 0 is no effect, 10 is complete control), Giant foxtail (giant foxtail; Rate 250 g/ha, Postemergence): 0 | Giant foxtail plant response rating (giant foxtail; [7]): 1 | Morningglory plant response rating (morningglory; [1]): 0 | Morningglory plant response rating (morningglory; [2]): 0 | Plant response rating, Morningglory (morningglory; [3]): 0 | Morningglory plant response rating (morningglory; [4]): 1 | Morningglory plant response rating (morningglory; [5]): 1 | Morningglory plant response rating (morningglory; [6]): 0 | Plant response rating (0 to 10; 0 is no effect, 10 is complete control), Morningglory (morningglory; Rate 250 g/ha, Postemergence): 3 | Morningglory plant response rating (morningglory; [7]): 3 | Redroot pigweed plant response rating (pigweed; [1]): 0 | Redroot pigweed plant response rating (pigweed; [2]): 0 | Plant response rating, Redroot pigweed (pigweed; [3]): 4 | Redroot pigweed plant response rating (pigweed; [4]): 0 | Redroot pigweed plant response rating (pigweed; [5]): 0 | Redroot pigweed plant response rating (pigweed; [6]): 0 | Plant response rating (0 to 10; 0 is no effect, 10 is complete control), Redroot pigweed (pigweed; Rate 250 g/ha, Postemergence): 0 | Redroot pigweed plant response rating (pigweed; [7]): 0 | Rape plant response rating (rape; [1]): 0 | Rape plant response rating (rape; [2]): 0 | Plant response rating, Rape (rape; [3]): 0 | Rape plant response rating (rape; [4]): 0 | Rape plant response rating (rape; [5]): 0 | Rape plant response rating (rape; [6]): 0 | Plant response rating (0 to 10; 0 is no effect, 10 is complete control), Rape (rape; Rate 250 g/ha, Postemergence): 0 | Rape plant response rating (rape; [7]): 0 | Sugarbeets plant response rating (sugar beet; [1]): 0 | Sugarbeets plant response rating (sugar beet; [2]): 0 | Plant response rating, Sugarbeets (sugar beet; [3]): 0 | Sugarbeets plant response rating (sugar beet; [4]): 0 | Sugarbeets plant response rating (sugar beet; [5]): 0 | Sugarbeets plant response rating (sugar beet; [6]): 0 | Plant response rating (0 to 10; 0 is no effect, 10 is complete control), Sugarbeets (sugar beet; Rate 250 g/ha, Postemergence): 0 | Sugarbeets plant response rating (sugar beet; [7]): 0 | Velvetleaf plant response rating (velvetleaf; [1]): 0 | Velvetleaf plant response rating (velvetleaf; [2]): 0 | Plant response rating, Velvetleaf (velvetleaf; [3]): 3 | Velvetleaf plant response rating (velvetleaf; [4]): 0 | Velvetleaf plant response rating (velvetleaf; [5]): 0 | Velvetleaf plant response rating (velvetleaf; [6]): 0 | Plant response rating (0 to 10; 0 is no effect, 10 is complete control), Velvetleaf (velvetleaf; Rate 250 g/ha, Postemergence): 2 | Velvetleaf plant response rating (velvetleaf; [7]): 3 | Wheat plant response rating (wheat; [1]): 0 | Wheat plant response rating (wheat; [2]): 0 | Plant response rating, Wheat (wheat; [3]): 0 | Wheat plant response rating (wheat; [4]): 0 | Wheat plant response rating (wheat; [5]): 0 | Wheat plant response rating (wheat; [6]): 0 | Plant response rating (0 to 10; 0 is no effect, 10 is complete control), Wheat (wheat; Rate 250 g/ha, Postemergence): 0 | Wheat plant response rating (wheat; [7]): 0 | Nutsedge plant response rating (purple nutsedge; [2]): 0 | Nutsedge plant response rating (purple nutsedge; [4]): 0 | Nutsedge plant response rating (purple nutsedge; [5]): 0 | Nutsedge plant response rating (purple nutsedge; [6]): 0 | Plant response rating (0 to 10; 0 is no effect, 10 is complete control), Nutsedge (purple nutsedge; Rate 250 g/ha, Postemergence): 0 | Rice plant response rating (rice; [8]): 0 | Rice plant response rating (rice; [9]): 0 | Rice plant response rating (rice; [10]): 0 | Rice plant response rating (rice; [11]): 0 | S. Flatsedge plant response rating (smallflower flatsedge; [8]): 0 | S. Flatsedge plant response rating (smallflower flatsedge; [9]): 0 | S. Flatsedge plant response rating (smallflower flatsedge; [10]): 0 | S. Flatsedge plant response rating (smallflower flatsedge; [11]): 0 | Ducksalad plant response rating (duck salad; [8]): 0 | Ducksalad plant response rating (duck salad; [9]): 0 | Ducksalad plant response rating (duck salad; [10]): 0 | Ducksalad plant response rating (duck salad; [11]): 0
